# Source: patent publication US10391095B2, “DNA-PK inhibitors” (Vertex Pharmaceuticals Incorporated, priority 2012, dated 2019)
# Molecular target: DNA-PK (Homo sapiens, UniProt P78527)
# Test: DNA-PK inhibition assay (radiometric, 33P-ATP)
# Format: biochemical
# Details: 100 μM ATP, competitive tight-binding fit
# Method in brief: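 33P transfer from 100 µM ATP to a DNA-PK peptide (0.8 mg/mL) is measured after 45 min, using about 6 nM enzyme activated by 10 µg/mL sheared dsDNA (HEPES pH 7.5, MgCl2, DTT). Filter-bound counts fitted to a competitive tight-binding inhibition model give Ki.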
row,Compound,Ki
1,CNC(=O)c1ccc(C(C)CNc2cc(-c3cnc4c(cnn4CCOC)c3)ncn2)c(OC)c1 (centres unmarked) [Compound 154],< 30 nM
2,CNC(=O)c1ccnc2c([C@H](C)CNc3cc(-c4cnc(O)nc4)ncn3)cccc12 [Compound 768],< 30 nM
3,Cc1ccc(-c2cc(NCC(C)c3ccccc3OC3CCC3)ncn2)cn1 (centres unmarked) [Compound 240],< 30 nM
4,CNC(=O)c1ccnc2c([C@H](C)CNc3cc(-c4ccc(NCc5cocn5)nc4)ncn3)cccc12 [Compound 712],< 30 nM
5,COc1ncc(-c2cc(NC[C@@H](C)c3ccnc4c3OCC4)ncn2)cc1N [Compound 589],< 30 nM
6,CNC(=O)c1c(F)cnc2c([C@H](C)CNc3cc(-c4cnc(C#N)c(OC)c4)ncn3)cccc12 [Compound 918],< 30 nM
7,COc1cc(N)ccc1C(C)CNc1cc(-c2ccc(C)nc2)ncn1 (centres unmarked) [Compound 178],< 30 nM
8,CC(CNc1cc(-c2ccc(N3CCN(C)CC3)nc2)ncn1)c1cnccc1OC1CC1 (centres unmarked) [Compound 177],< 30 nM
9,CNC(=O)c1ccnc2c([C@H](C)CNc3cc(-c4ccc(NC5CC5)nc4)ncn3)cccc12 [Compound 628],< 30 nM
10,CNC(=O)c1ccc([C@H](C)CNc2cc(-c3cnc4c(ccn4C4COC4)c3)ncn2)c(OC)c1 [Compound 252],< 30 nM
11,CCOc1ccccc1CCNc1cc(-c2ccc(N3CCN(CCO)CC3)nc2)ncn1 [Compound 94],< 30 nM
12,CNCCCNc1ccc(-c2cc(NC[C@@H](C)c3ccc(C(=O)NC)cc3OC)ncn2)cn1 [Compound 356],< 30 nM
13,COc1cc(-c2cc(NC[C@@H](C)c3ccnc4c3OCC4)ncn2)cnc1OC [Compound 595],< 30 nM
14,"CNC(=O)c1ccnc2c([C@H](C)CNc3cc(-c4ccc(N5CCN6C(=O)OCC6C5)nc4)ncn3)cccc12 (single isomer, unassigned) [Compound 731]",< 30 nM
15,CNC(=O)c1ccnc2c([C@H](C)CNc3cc(-c4cnc(F)c(C)c4)ncn3)cccc12 [Compound 951],< 30 nM
16,Cc1ccc(-c2cc(NCC(C)c3ccccc3OCCCO)ncn2)cn1 (centres unmarked) [Compound 182],< 30 nM
17,CNC(=O)c1ccnc2c([C@H](C)CNc3cc(-c4cc(OC)nc(OC)c4)ncn3)cccc12 [Compound 889],< 30 nM
18,CNC(=O)c1ccnc2c([C@H](C)CNc3cc(-c4ccc(N5CCCC5)nc4)ncn3)cccc12 [Compound 723],< 30 nM
19,CC(CNc1cc(-c2cnc3c(cnn3CC3CC3)c2)ncn1)c1ccccc1OC1COC1 (centres unmarked) [Compound 217],< 30 nM
20,C[C@H](CNc1cc(-c2cnc3[nH]ncc3c2)ncn1)c1ccnc2c1OCC2 [Compound 437],< 30 nM
21,COc1ccccc1[C@H](C)CNc1cc(-c2ccc(NC3CCN(C4CC4)CC3)nc2)ncn1 [Compound 242],< 30 nM

row,Compound,Ki
1,CNC(=O)c1ccnc2c([C@H](C)CNc3cc(-c4cncc(C)c4)ncn3)ccc(F)c12 [Compound 651],< 30 nM
2,CC(CNc1cc(-c2cnc3c(cnn3C3CCN(C)CC3)c2)ncn1)c1ccccc1O (centres unmarked) [Compound 151],< 30 nM
3,COc1ccccc1[C@H](C)CNc1cc(-c2cnc3c(cnn3C3CN(C(C)=O)C3)c2)ncn1 [Compound 249],< 30 nM
4,CNC(=O)c1ccnc2c([C@H](C)CNc3cc(-c4cnc(OC(C)C)nc4)ncn3)ccc(F)c12 [Compound 983],< 30 nM
5,CNCCNc1ccc(-c2cc(NC[C@@H](C)c3ccccc3OC)ncn2)cn1 [Compound 205],< 30 nM
6,CNC(=O)c1ccc(C(C)CNc2cc(-c3ccc(OCC4CC4)nc3)ncn2)c(OC)c1 (centres unmarked) [Compound 326],< 30 nM
7,CNC(=O)c1ccnc2c([C@H](C)CNc3cc(N4CNC(=O)C4)ncn3)cccc12 [Compound 797],< 30 nM
8,COc1ccccc1[C@H](C)CNc1cc(-c2cnc3c(cnn3CCO)c2)ncn1 [Compound 127],< 30 nM
9,CNC(=O)c1ccnc2c([C@H](C)CNc3cc(-c4ccnc(C)c4)ncn3)cccc12 [Compound 771],< 30 nM
10,CNC(=O)c1ccnc2c([C@H](C)CNc3cc(-c4ccc(N5CC(CO)C5)nc4)ncn3)cccc12 [Compound 736],< 30 nM
11,CC(CNc1cc(-c2ccc(C(=O)NCCC#N)cc2)ncn1)c1ccnc2cccnc12 (centres unmarked) [Compound 431],< 30 nM
12,CNC(=O)c1c(F)cnc2c([C@H](C)CNc3cc(-c4ccc(NC5CC5)nc4)ncn3)cccc12 [Compound 921],< 30 nM
13,CNC(=O)c1ccc(C(C)CNc2cc(-c3cnc4c(cnn4CCC#N)c3)ncn2)c(OC)c1 (centres unmarked) [Compound 442],< 30 nM
14,C[C@H](CNc1cc(-c2cnc3c(cnn3C3COC3)c2)ncn1)c1ccnc2c1OCC2 [Compound 417],< 30 nM
15,CNC(=O)c1ccnc2c([C@H](C)CNc3cc(-c4ccc(F)cc4)ncn3)cccc12 [Compound 684],< 30 nM
16,CNC(=O)c1ccnc2c([C@H](C)CNc3cc(-c4ccc(O)cc4)ncn3)cccc12 [Compound 685],< 30 nM
17,CNC(=O)c1ccnc2c([C@H](C)CNc3cc(-c4cncc(N)c4)ncn3)cccc12 [Compound 874],< 30 nM
18,Cc1ccc(-c2cc(NCCc3cccc4c3OCC4)ncn2)cn1 [Compound 60],< 30 nM
19,COc1ccc(C(C)CNc2cc(-c3ccc(C)nc3)ncn2)c(OC)n1 (centres unmarked) [Compound 466],< 30 nM
20,CNC(=O)c1c(F)cnc2c([C@H](C)CNc3cc(-c4cnc(CO)c(OC)c4)ncn3)cccc12 [Compound 920],< 30 nM

# Results, then the compound that gave them:
row,Ki,Compound
1,< 30 nM,CCOc1cc(-c2cc(NC[C@@H](C)c3ccc(F)c4c(C(=O)NC)ccnc34)ncn2)cnc1OCC [Compound 905]
2,< 30 nM,COc1ccccc1[C@H](C)CNc1cc(-c2cnc3c(cnn3C3COC3)c2)ncn1 [Compound 179]
3,< 30 nM,CNC(=O)c1ccc(C(C)CNc2cc(-c3ccc(CCO)cc3)ncn2)c(OC)c1 (centres unmarked) [Compound 339]
4,< 30 nM,CNC(=O)c1ccc(C(C)CNc2cc(-c3ccc(OCCSC)nc3)ncn2)c(OC)c1 (centres unmarked) [Compound 323]
5,< 30 nM,COc1ccccc1CCNc1cc(-c2ccc(N3CCCC3)nc2)ncn1 [Compound 46]
6,< 30 nM,C=C(CNc1cc(-c2ccc(C)nc2)ncn1)c1cnc(N)nc1OC [Compound 453]
7,< 30 nM,CCc1cc(-c2cc(NC[C@@H](C)c3cccc4c(C(=O)NC)ccnc34)ncn2)cc(CC)n1 [Compound 953]
8,< 30 nM,CNC(=O)c1ccc([C@H](C)CNc2cc(-c3ccc(NC4CCN(C)CC4)nc3)ncn2)c(OC)c1 [Compound 348]
9,< 30 nM,Cc1ccc(-c2cc(NCC(C)c3ccc(F)c4cccnc34)ncn2)cn1 (centres unmarked) [Compound 303]
10,< 30 nM,CNC(=O)c1ccnc2c([C@H](C)CNc3cc(-c4ccc5c(c4)CC(=O)N5C)ncn3)cccc12 [Compound 825]
11,< 30 nM,CNC(=O)c1c(F)cnc2c([C@H](C)CNc3cc(-c4csc(OC)n4)ncn3)cccc12 [Compound 787]
12,< 30 nM,CNC(=O)c1ccnc2c([C@H](C)CNc3cc(-c4ccc(C(=O)NCCCN(C)C)cc4)ncn3)cccc12 [Compound 751]
13,< 30 nM,COc1ccccc1[C@H](C)CNc1cc(-c2ccnc(-c3ccnc(F)c3)c2)ncn1 [Compound 105]
14,< 30 nM,COc1ccccc1[C@H](C)CNc1cc(-c2cnc3c(ccn3C)c2)ncn1 [Compound 173]
15,< 30 nM,Cc1ccc(-c2cc(NCC(C)c3ccccc3OC3COC3)ncn2)cn1 (centres unmarked) [Compound 101]
16,< 30 nM,CCOc1ccccc1[C@H](C)CNc1cc(-c2ccc(N3CCN(C)CC3)nc2)ncn1 [Compound 152]
17,< 30 nM,CNC(=O)c1ccc([C@H](C)CNc2cc(-c3ccc4c(c3)CCN4C)ncn2)c(OC)c1 [Compound 342]
18,< 30 nM,CNC(=O)c1ccc([C@H](C)CNc2cc(-c3ccc(C)nc3)ncn2)c(OC)c1 [Compound 175]

row,Ki,Compound
1,< 30 nM,C[C@H](CNc1cc(-c2cnc3c(ccn3C3COC3)c2)ncn1)c1ccnc2c1OCCO2 [Compound 536]
2,< 30 nM,CNC(=O)c1ccnc2c([C@H](C)CNc3cc(-c4cnc(C)s4)ncn3)cccc12 [Compound 778]
3,< 30 nM,CNC(=O)c1c(F)cnc2c([C@H](C)CNc3cc(-c4cnc(C5CCC5)nc4)ncn3)cccc12 [Compound 856]
4,< 30 nM,CNc1ncc(-c2cc(NC[C@@H](C)c3ccccc3OC)ncn2)cn1 [Compound 137]
5,< 30 nM,CNC(=O)c1ccnc2c([C@H](C)CNc3cc(-c4cnc(CO)c(OC)c4)ncn3)ccc(F)c12 [Compound 916]
6,< 30 nM,C[C@H](CNc1cc(-c2ccc3ncccc3c2)ncn1)c1ccnc2c1OCC2 [Compound 480]
7,< 30 nM,Cc1ccc(-c2cc(NCC(C)c3cccc4cc(F)cnc34)ncn2)cn1 (centres unmarked) [Compound 346]
8,< 30 nM,CNC(=O)c1ccc(C(C)CNc2cc(-c3cnc4c(cnn4CCN4CCCC4=O)c3)ncn2)c(OC)c1 (centres unmarked) [Compound 239]
9,< 30 nM,COc1ccccc1[C@H](C)CNc1cc(-c2cnc3c(cnn3CC3CC3)c2)ncn1 [Compound 140]
10,< 30 nM,COc1ccccc1CCNc1cc(-c2cnc3c(ccn3CC3CCOCC3)c2)ncn1 [Compound 41]
11,< 30 nM,CNC(=O)c1ccnc2c([C@H](C)CNc3cc(-c4ccnc(NC5CC5)c4)ncn3)cccc12 [Compound 894]
12,< 30 nM,CNC(=O)c1ccnc2c([C@H](C)CNc3cc(-c4ccc(NCC5CC5)nc4)ncn3)cccc12 [Compound 644]
13,< 30 nM,CNC(=O)c1c(C#N)cnc2c([C@H](C)CNc3cc(-c4ccc(C)nc4)ncn3)cccc12 [Compound 766]
14,< 30 nM,CC(CNc1cc(-c2ccc(N3CCN(C)CC3)nc2)ncn1)c1cccc2cccnc12 (centres unmarked) [Compound 236]
15,< 30 nM,CNC(=O)c1ccnc2c([C@H](C)CNc3cc(-c4ccc(C(=O)O)cc4)ncn3)cccc12 [Compound 672]
16,< 30 nM,CNC(=O)c1ccnc2c([C@H](C)CNc3cc(-c4ccc(N5CCOCC5)cc4)ncn3)cccc12 [Compound 678]
17,< 30 nM,CNC(=O)c1ccnc2c([C@H](C)CNc3cc(-c4ccc(C(O)C(C)C)nc4)ncn3)ccc(F)c12 (some centres unmarked) [Compound 926]
18,< 30 nM,Cc1ccc(-c2cc(NC[C@@H](C)c3ccccc3OC3CC3)ncn2)cn1 [Compound 107]
